Like-named read-outs stand apart in the source and are kept apart here.
How the values were obtained:
[1] = Stability (physicochemical properties, Table 1); conditions: for Stability (photostability): light
[2] = Solubility (physicochemical properties, Table 1); conditions: room temperature, atmospheric pressure
[3] = tested on: human breast cancer cell line (sensitive) MCF-7/S + EGF; experiment: Cytotoxicity experiment under the condition of additional EGF, SRB method; assay type: cell-based
Procedure: Human breast cancer cell line (sensitive) MCF-7/S and human non-small cell lung cancer cell line A549 are cultured in HAM′S/F-12 medium (HyClone, USA) containing 10 wt % fetal bovine serum (FBS, Hyclone, USA), and 100 ng/ml epidermal growth factor (EGF, Sigma, USA) is added to this medium. Cells described above were purchased from Cell Resource Center, Shanghai Institute for Biological Science, CAS, they are placed in a CO2 incubator and used for the experiment 3-5 days later.
(§1) Wherein, for experiment on compound cytotoxicity assay by sulforhodamine B (SRB) method: Cells in the logarithmic growth phase are collected and inoculated at 96-well plates (6500 cells/well/100 ul, RPMI1640 containing 100 ng/ml of EGF). After incubation for 24 h, compounds at gradient concentrations (200, 100, 50, 25, 12.5, 6.25, 1 (μM/L)) are added. The same volume of RPMI1640 containing 100 ng/ml of EGF is used as control group of the experiment; the blank group is only culture medium without cell. Three parallel wells are set up for each concentration group. After incubation is continued for 48 h, the cell survival rate is measured by SRB method. 50 μl 10% trichloroacetic acid (TCA) pre-cooled (4° C.) is added to each well, it is fixed for 1 hour at 4° C., washed with water for five times, and completely dried, and then 100 μl of SRB solution (Sigma, USA) at concentration of 0.4% by weight is added, and staining is performed at 37° C. in the dark for 30 min. Wash with acetic acid at a concentration of 1% by weight for 4-5 times, dry in the air, add 200 μl of Tris solution (10 mM, pH 10.5), after sufficiently dissolved, the absorbance (absorption wavelength is 570 nm) is measured in microplate reader.
(§2) The growth inhibition rate (IR) is calculated according to the following formula: IR (%)=[1−(experiment group A value−blank group A value)/(control group A value−blank group A value)]×100%, and the IC50 value is calculated using Origin 6.0 software.

keratinocyte Colo-16 = experiment: Cytotoxicity experiment, SRB method, tumor cell proliferation; assay type: cell-based; conditions: read-out: IC50 (μmol/L) Keratinocyte Colo-16
Procedure: (§3) Human breast cancer cell line (drug-resistant) MCF-7/A, human breast cancer cell line (sensitive) MCF-7/S, prostate cancer cell PC-3, keratinocyte Colo-16, human non-small cell lung cancer cell line A549 and etc. are cultured in RPMI1640 medium (Invitrogen, USA) containing 10 wt % fetal bovine serum (FBS, Hyclone, USA), and epidermal growth factor (EGF) at a concentration of 100 ng/ml is added to stimulate growth. After 2-3 days, cells in logarithmic growth phase are collected, and inoculated at 96 well plates (6500 cells/well/100 ul, RPMI1640 containing 100 ng/mL EGF) for 24 h, and then compound at gradient concentrations (200, 100, 50, 25, 12.5, 6.25, 1 μM/L) are added. The same volume of RPMI1640 containing 1 wt % of dimethyl sulfoxide (DMSO) is used as control group of the experiment; the blank group is only culture medium without cell. Three parallel wells are set up for each concentration group. After incubation is continued for 48 h, the cell survival rate is measured by SRB method. Results are shown in Table 2 and Table 3, respectively.
as §1, §2

[4] = tested on: human non-small cell lung cancer cell line A549; experiment: as above; assay type: cell-based; conditions: A549, 48 h, read-out: IC50 (μmol/L) Non-small cell lung cancer cell A549
Procedure: as §3, §1, §2

[5] = tested on: human breast cancer cell line (sensitive) MCF-7/S; experiment: as above; assay type: cell-based; conditions: 48 h, read-out: IC50 (umol/L) Breast cancer cell (sensitive) MCF-7/S
Procedure: as §3, §1, §2

[6] = tested on: prostate cancer cell PC-3; experiment: as above; assay type: cell-based; conditions: read-out: IC50 (μmol/L) Prostate cancer cell PC-3
Procedure: as §3, §1, §2

[7] = tested on: Human breast cancer cell line (drug-resistant) MCF-7/A; experiment: as above; assay type: cell-based; conditions: 48 h, read-out: IC50 (umol/L) Breast cancer cell (drug-resistant) MCF-7/A
Procedure: as §3, §1, §2

[8] = molecular target: T1, EGFR (Epidermal Growth Factor Receptor) (Homo sapiens, UniProt P00533); experiment: Enzyme-linked immunosorbent assay (ELISA), kinase inhibitory activity (phosphorylation of PTP1B(Tyr66) biotinylated peptide substrate); assay type: biochemical; conditions: average of two independent parallel experiments
T1 construct: purchased CST
Excerpt: Protein kinase assay kit: PTP1B(Tyr66) Biotinylated Peptide from CST company is used as a substrate of kinase EGFR (Epidermal Growth Factor Receptor).

[9] = Homo sapiens, MCF7S, MCF-7/S with additional EGF 100 ng/ml, 48 h, SRB, read-out: IC50 (umol/L) Breast cancer cell (sensitive) MCF-7/S + EGF
[10] = Keratinocyte, Colo-16, 48 h, SRB
[11] = MCF-7/S with additional EGF 100 ng/ml, 48 h, SRB, read-out: IC50 (umol/L) Breast cancer cell (sensitive) MCF-7/S + EGF

T1 sequence (P00533 25-1210): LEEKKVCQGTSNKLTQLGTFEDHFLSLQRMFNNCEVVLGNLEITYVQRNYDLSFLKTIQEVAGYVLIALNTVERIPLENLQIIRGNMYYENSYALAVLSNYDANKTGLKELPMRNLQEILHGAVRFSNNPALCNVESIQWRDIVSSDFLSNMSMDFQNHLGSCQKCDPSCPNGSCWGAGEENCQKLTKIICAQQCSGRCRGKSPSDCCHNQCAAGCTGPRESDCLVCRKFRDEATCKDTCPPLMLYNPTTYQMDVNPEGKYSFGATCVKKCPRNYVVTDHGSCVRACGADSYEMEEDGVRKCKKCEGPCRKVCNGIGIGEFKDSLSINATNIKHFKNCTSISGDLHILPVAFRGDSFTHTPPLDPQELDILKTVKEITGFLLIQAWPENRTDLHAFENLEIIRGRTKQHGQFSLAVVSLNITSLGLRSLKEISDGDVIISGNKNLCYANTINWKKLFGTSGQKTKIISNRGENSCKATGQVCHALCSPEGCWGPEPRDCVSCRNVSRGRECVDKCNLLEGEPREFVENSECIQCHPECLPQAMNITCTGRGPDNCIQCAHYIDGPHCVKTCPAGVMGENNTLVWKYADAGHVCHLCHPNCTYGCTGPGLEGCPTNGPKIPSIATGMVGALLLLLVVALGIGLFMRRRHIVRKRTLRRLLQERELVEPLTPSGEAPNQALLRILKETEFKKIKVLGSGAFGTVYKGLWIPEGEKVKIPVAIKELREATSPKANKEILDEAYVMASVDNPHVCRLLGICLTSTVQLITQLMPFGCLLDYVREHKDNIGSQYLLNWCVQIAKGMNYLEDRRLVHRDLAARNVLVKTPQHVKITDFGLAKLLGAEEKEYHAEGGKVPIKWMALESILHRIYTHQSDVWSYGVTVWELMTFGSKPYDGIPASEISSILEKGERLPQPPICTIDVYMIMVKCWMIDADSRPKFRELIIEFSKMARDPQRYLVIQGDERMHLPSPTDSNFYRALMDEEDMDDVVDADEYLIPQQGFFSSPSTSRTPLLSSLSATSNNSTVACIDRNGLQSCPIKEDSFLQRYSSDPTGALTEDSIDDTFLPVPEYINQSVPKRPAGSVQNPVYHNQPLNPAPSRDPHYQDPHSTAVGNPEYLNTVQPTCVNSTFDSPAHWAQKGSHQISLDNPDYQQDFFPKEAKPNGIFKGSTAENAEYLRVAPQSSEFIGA

SMILES | Stability (in air) [1] | Stability (photostability) [1] | Solubility in DMSO [2] | Solubility in methanol and ethanol [2] | Solubility in water [2] | IC50 [3, 9] [µmol/L] | IC50 ([4]; Homo sapiens) [µmol/L] | IC50 ([7]; Homo sapiens, MCF7a) [µmol/L] | IC50 [8] [µM] | IC50 ([6]; PC-3, 48 h, SRB) [µmol/L] | IC50 [3, 11] [µmol/L] | IC50 (keratinocyte Colo-16; Colo-16, 48 h, SRB) [µmol/L] | IC50 [5] [µmol/L] | IC50 [7] [µmol/L] | other results
COc1cc2ncnc(Nc3ccc(F)c(Cl)c3)c2cc1OCCn1ccnc1 [JLY1002] | Stable in air, | photostable | Highly soluble in DMSO | soluble in water, soluble in methanol | slightly | > 100 | 48.2 ± 0.51 | > 100 | – | – | – | – | – | – | IC50 (keratinocyte Colo-16; Keratinocyte, 48 h): > 100 µmol/L; IC50 ([5]; Homo sapiens, MCF7S): > 100 µmol/L; IC50 ([6]; 48 h): > 100 µmol/L
COc1cc2ncnc(Nc3ccc(F)c(Cl)c3)c2cc1OCC[N]1CC[NH][Ru]1([Cl])([Cl])([Cl])[SH](C)(C)=O [JLY2007] | Stable in air, | photostable | Highly soluble in DMSO | soluble in water, soluble in methanol | slightly | – | – | – | 0.0075 | – | – | – | – | – | –
COc1cc2ncnc(Nc3ccc(F)c(Cl)c3)c2cc1OC [LQ1001, reference compound] | Stable in air, | photostable | Highly soluble in DMSO | soluble in water, soluble in methanol | slightly | 53.3 ± 3.12 | > 100 | > 100 | – | > 100 | – | – | – | – | IC50 (keratinocyte Colo-16; [10]): 88.2 ± 3.98 µmol/L; IC50 ([5]; Homo sapiens, MCF7S): > 100 µmol/L
Cl.[Cl-].[Cl-].[Cl-].[Ru+3].c1c[nH]cn1.c1c[nH]cn1 [NAMI-A, reference compound] | – | – | – | – | – | – | – | – | – | > 100 | > 100 | > 100 | > 100 | > 100 | –
Cc1ccc(C(C)C)cc1.F[P-](F)(F)(F)(F)F.[Cl][Ru-]1[NH2+]CC[NH2+]1 [Pcy-Ru, reference compound] | – | – | – | – | – | – | – | – | – | > 100 | 21.8 ± 1.73 | 14.3 ± 1.5 | 13 ± 3.37 | > 100 | IC50 [4]: 17.3 ± 0.76 µmol/L
CC(=O)O[C@H]1C(=O)[C@@]2(C)[C@H]([C@H](OC(=O)c3ccccc3)[C@]3(O)C[C@H](OC(=O)[C@H](O)[C@@H](NC(=O)c4ccccc4)c4ccccc4)C(C)=C1C3(C)C)[C@]1(OC(C)=O)CO[C@@H]1C[C@@H]2O [Taxol, reference compound] | – | – | – | – | – | 0.029 | 4.07 ± 1.63 | 0.44 ± 0.5 | – | 0.74 ± 0.18 | – | – | – | – | IC50 (keratinocyte Colo-16; [10]): 1.06 ± 0.31 µmol/L
COc1cc2ncnc(Nc3ccc(F)c(Cl)c3)c2cc1OCCNCCN [ZW1001, 6-(2-(2-aminoethylamino)ethoxy)-4-(3-Chloro-4-fluoro-phenylamino)-7-methoxy quinazoline] | Stable in air, | photostable | Highly soluble in DMSO | soluble in water, soluble in methanol | slightly | 36.3 ± 5.77 | 51 ± 1.02 | > 100 | 0.0046 | 38.4 ± 2.36 | – | – | – | – | IC50 (keratinocyte Colo-16; [10]): > 100 µmol/L; IC50 ([5]; Homo sapiens, MCF7S): 38.34 ± 0.1 µmol/L
COc1cc2ncnc(Nc3ccc(F)c(Cl)c3)c2cc1OCCBr [ZW1001-M, 4-(3′-chloro-4′-fluoro-phenylamino)-6-(2-bromo-ethoxy)-7-methoxy quinazoline] | Stable in air, | photostable | Highly soluble in DMSO | soluble in water, soluble in methanol | slightly | – | – | – | 0.018 | – | – | – | – | – | –
COc1cc2ncnc(Nc3ccc(F)c(Cl)c3)c2cc1OCCCNCCN [ZW1002, 6-(3-(2-aminoethylamino)propoxy)-4-(3-Chloro-4-fluoro-phenylamino)-7-methoxy quinazoline] | Stable in air, | photostable | Highly soluble in DMSO | soluble in water, soluble in methanol | slightly | 15.9 ± 1.15 | 57.4 ± 1.98 | > 100 | 0.0072 | 13.6 ± 0.85 | – | – | – | – | IC50 (keratinocyte Colo-16; [10]): 14.5 ± 0.37 µmol/L; IC50 ([5]; Homo sapiens, MCF7S): 16.4 ± 0.62 µmol/L
COc1cc2ncnc(Nc3ccc(F)c(Cl)c3)c2cc1OCC[N]1CC[NH][Ru+]1([Cl])[c]1ccccc1.F[P-](F)(F)(F)(F)F (stereo not drawn) [ZW2002] | Stable in air, | photostable | – | – | – | – | – | – | 0.0938 | > 100 | > 100 | 42.1 ± 2.55 | > 100 | > 100 | IC50 [4]: > 100 µmol/L
COc1cc2ncnc(Nc3ccc(F)c(Cl)c3)c2cc1OCCC[N]1CC[NH][Ru+]1([Cl])[c]1cc(C(C)C)ccc1C.F[P-](F)(F)(F)(F)F (stereo not drawn) [ZW2004] | Stable in air, | photostable | Highly soluble in DMSO | soluble in water, soluble in methanol | slightly | – | – | – | 0.106 | 79.9 ± 7.44 | 33.9 ± 1.39 | 58.2 ± 1.49 | 86.8 ± 6.66 | > 100 | IC50 ([3]; MCF-7/S+EGF, read-out: IC50 under the test condition of MCF-7/S+EGF inhibiting the proliferation of tumor cells): 33.9 µmol/L; IC50 ([3]; MCF-7/S+EGF, read-out: IC50 under the test conditions of MCF-7/S+EGF inhibiting tumor cell proliferation): 33.9 µmol/L
COc1cc2ncnc(Nc3ccc(F)c(Cl)c3)c2cc1OCCC[N]1CC[NH][Ru+]1([Cl])[c]1ccccc1.F[P-](F)(F)(F)(F)F (stereo not drawn) [ZW2005] | Stable in air, | photostable | – | – | – | – | – | – | 0.174 | 38.3 ± 3.56 | 17.4 ± 1.09 | 39.8 ± 4.85 | > 100 | > 100 | IC50 [4]: 45.1 ± 2.34 µmol/L
COc1cc2ncnc(Nc3ccc(F)c(Cl)c3)c2cc1OCC[NH+]1CC[NH2+][Pt-2]1([Cl])[Cl] (stereo not drawn) [ZY-1] | Stable in air, | photostable | Highly soluble in DMSO | soluble in water, soluble in methanol | slightly | – | – | – | 0.0028 | – | – | – | – | – | –
COc1cc2ncnc(Nc3ccc(F)c(Cl)c3)c2cc1OCCC[NH+]1CC[NH2+][Pt-2]1([Cl])[Cl] (stereo not drawn) [ZY-2] | Stable in air, | photostable | Highly soluble in DMSO | soluble in water, soluble in methanol | slightly | – | – | – | 0.017 | – | – | – | – | – | –

— US9233995B2, “Quinazoline derivatives and quinazoline complex protein kinase inhibitor for inhibiting multiplication of tumor cells and preparation method thereof” (INSTITUTE OF CHEMISTRY, CHINESE ACADEMY OF SCIENCES, priority 2010, dated 2016)
